Source: patent US20080161404A1 (ASTRAZENECA AB, priority 2005, published 2008)
“And” between values parts separate entries of the source, which are not always exact repeats. Identical values can stand only once. Like-named read-outs stand apart in the source and are kept apart here.

Legend:
[1] = cited from earlier work
[2] = tested on: advanced prostate cancer (M0 or M1); experiment: Survival (Kaplan-Meier time to death) versus castration in patients with advanced prostate cancer (Example 1); details: 450-600 mg
Method: Tolerability was similarly assessed at 450 mg/day (3 tablets) and 600 mg/day (4 tablets).
After objective disease progression, patients were followed up every 3 months for survival and/or adverse event data.
Results are presented as for both the overall patient population and also by disease stage (M0 or M1).

[3] = Clinical pharmacokinetics of (R)-bicalutamide (Css, t1/2) in prostate cancer patients given bicalutamide 300-600 mg once daily (Example 1); format: in vivo, human; details: for Steady state plasma conc. geometric mean: (R)-bicalutamide
Protocol: Plasma samples were stored at −20° C. until analysis. […] Quantification of the enantiomers was achieved using ultra-violet absorbance.
Method: Assays were performed using 0.5 ml plasma aliquots. […] A further control compound (internal standard) was added to each sample, along with 1.5 ml of pH 7 0.05M phosphate buffer (Electronic Instruments Ltd.) and 6 mls of ethyl acetate. The samples were mixed and then centrifuged and a 5 ml aliquot of the ethyl acetate layer (upper layer) was removed and evaporated to dryness in a polypropylene tube. The residue was re-dissolved in 400 μl of water:acetonitrile (70:30 v/v).
The fraction was evaporated to dryness and reconstituted in 400 μl of an HPLC eluent; 0.02 M pH 7 phosphate buffer; acetonitrile (85:15 v/v). 200 μl of the reconstituted fraction was then injected onto the chiral chromatographic system.

serum PSA levels = experiment: Change in serum PSA levels in M0/M1 prostate cancer patients (Example 1); format: in vivo, human
Protocol: Patients had histologically or cytologically confirmed M0 (T3 or T4) or M1 prostate cancer and a PSA level ≧20 ng/mL.

## 4′-cyano-α′,α′,α′-trifluoro-3-(4-fluorophenylsulphonyl)-2-hydroxy-2-methylpropiono-m-toluidide [Bicalutamide]
[1]; bicalutamide doses of 10-200 mg
  t1/2 of (R)-bicalutamide: 150 to 213 h
[1]; patients, 150 mg daily
  mean steady state plasma concentration of R-bicalutamide: 21.6 µg/mL and 21 µg/mL
[1]; patients, bicalutamide 200 mg
  plasma concentration of (R)-bicalutamide (Css): 28900 ng/mL
[2]; M0 patients, 28/74
  events (deaths), share of patients: 37.8%
[2]; M1 patients, 43/63
  events (deaths), share of patients: 68.3%
[2]; all patients, median 5 years follow up, 71/137
  events (deaths), share of patients: 51.8%
[3]; 300 mg once daily, 18 patients
  Steady state plasma conc. geometric mean: 35 µg/mL
[3]; 450 mg once daily, 82 patients
  Steady state plasma conc. geometric mean: 31 µg/mL
[3]; 600 mg once daily, 34 patients
  Steady state plasma conc. geometric mean: 36 µg/mL
[3]; doses ≥300 mg vs 150 mg (21.6 μg/mL)
  plasma concentration of (R)-bicalutamide higher than with bicalutamide 150 mg: approximately 50%
[3]; doses ≥300 mg vs 200 mg (28.9 μg/mL)
  plasma concentration of (R)-bicalutamide higher than with bicalutamide 200 mg: approximately 15%
[3]; patients, conventional tablets, doses of 300 mg/day and above (300-600 mg)
  mean steady state plasma concentration of R-bicalutamide: 31 to 36 µg/mL
Serum PSA levels; Week 12, bicalutamide 300 mg
  percentage decrease in PSA: 93%
Serum PSA levels; Week 12, bicalutamide 450 mg
  percentage decrease in PSA: 95%
Serum PSA levels; Week 12, bicalutamide 600 mg
  percentage decrease in PSA: 96%
Serum PSA levels; baseline to Week 4
  percentage reduction in geometric mean PSA compared with castration group: greater percentage reductions in geometric mean PSA values

## C[C@](O)(CS(=O)(=O)c1ccc(F)cc1)C(=O)Nc1ccc(C#N)c(C(F)(F)F)c1 [R-Bicalutamide]
[1]; steady state
  share of the total circulating enantiomers at steady state: approximately 99%
